Data taken from patent US5622960A, “Topoisomerase II inhibitors and therapeutic uses therefor” (The United States of America as represented by the …, priority 1992, dated 1997).
Entries after “also recorded” stand apart in the source; their conditions may differ.

Experiments:
[1] = test system: cells (protein-linked DNA breaks); assay: protein-linked DNA breaks in cells; type: cell-based; details: compared to other top 2 inhibitors
[2] = target: T1, purified murine leukemia top 2 (Mus musculus, UniProt Q01320); assay: Sequencing of topoisomerase II cleavage sites (SV40 and c-myc DNA); type: biochemical; details: for top 2 cleavage sites induced (number/amount): SV40 and c-myc DNA, purified murine top 2
T1 construct: single 170 kDa band on silver-stained SDS-PAGE
T1 sequence (Q01320 whole entry): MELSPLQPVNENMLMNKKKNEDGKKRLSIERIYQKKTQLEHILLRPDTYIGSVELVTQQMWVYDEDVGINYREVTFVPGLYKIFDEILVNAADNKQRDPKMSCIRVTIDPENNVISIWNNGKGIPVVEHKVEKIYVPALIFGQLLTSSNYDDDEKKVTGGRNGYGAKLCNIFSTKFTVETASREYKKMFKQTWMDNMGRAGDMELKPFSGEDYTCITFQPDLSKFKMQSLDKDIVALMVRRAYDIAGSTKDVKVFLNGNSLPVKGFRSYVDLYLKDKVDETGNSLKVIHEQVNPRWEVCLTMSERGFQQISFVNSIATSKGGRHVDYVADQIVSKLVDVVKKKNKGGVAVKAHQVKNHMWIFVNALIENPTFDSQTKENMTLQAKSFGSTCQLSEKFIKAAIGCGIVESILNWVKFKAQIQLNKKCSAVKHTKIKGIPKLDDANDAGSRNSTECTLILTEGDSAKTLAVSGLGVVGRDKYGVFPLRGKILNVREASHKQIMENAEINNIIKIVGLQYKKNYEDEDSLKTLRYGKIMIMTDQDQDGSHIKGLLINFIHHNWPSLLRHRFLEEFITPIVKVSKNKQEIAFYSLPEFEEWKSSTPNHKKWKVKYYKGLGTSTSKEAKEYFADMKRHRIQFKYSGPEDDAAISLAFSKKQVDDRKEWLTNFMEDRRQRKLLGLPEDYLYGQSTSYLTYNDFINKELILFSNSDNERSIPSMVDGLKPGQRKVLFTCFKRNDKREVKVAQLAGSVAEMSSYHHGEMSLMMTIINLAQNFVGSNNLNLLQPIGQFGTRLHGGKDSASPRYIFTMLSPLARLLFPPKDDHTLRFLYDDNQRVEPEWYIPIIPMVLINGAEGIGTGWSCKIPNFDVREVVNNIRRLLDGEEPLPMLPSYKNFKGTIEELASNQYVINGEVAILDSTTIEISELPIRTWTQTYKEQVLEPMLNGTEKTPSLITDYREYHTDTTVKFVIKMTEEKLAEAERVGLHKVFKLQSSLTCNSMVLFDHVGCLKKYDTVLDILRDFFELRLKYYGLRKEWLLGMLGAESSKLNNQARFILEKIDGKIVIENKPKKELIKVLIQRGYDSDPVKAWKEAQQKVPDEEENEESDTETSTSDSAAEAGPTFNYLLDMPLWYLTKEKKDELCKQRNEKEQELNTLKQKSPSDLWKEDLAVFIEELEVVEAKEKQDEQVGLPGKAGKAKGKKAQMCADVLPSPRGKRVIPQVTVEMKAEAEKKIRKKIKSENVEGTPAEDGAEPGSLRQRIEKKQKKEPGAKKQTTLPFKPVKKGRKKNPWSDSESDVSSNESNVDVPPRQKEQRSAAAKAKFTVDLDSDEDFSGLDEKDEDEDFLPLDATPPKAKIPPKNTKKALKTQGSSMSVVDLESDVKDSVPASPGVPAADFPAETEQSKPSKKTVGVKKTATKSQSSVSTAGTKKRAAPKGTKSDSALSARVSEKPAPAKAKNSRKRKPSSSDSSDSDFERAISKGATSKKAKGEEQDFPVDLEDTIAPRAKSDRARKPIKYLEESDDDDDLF
Description: (§1) Chemicals, and enzymes: Azatoxin and its derivatives, as well as the demethyldesoxypodophyllotoxin (DMDP) and demethylepipodophyllotoxin (DMEP), were synthesized by conventional methods. The compounds m-AMSA and mitoxantrone were obtained from the Drug Synthesis and Chemistry Branch, National Cancer Institute, Bethesda, Md. The compounds VP-16 and VM-26 were obtained from Bristol-Myers Company (Wallingford, Conn.). Drug stock solutions were made in dimethylsulfoxide at 10 mM. Further dilutions were made in distilled water. Various other reagents, including simian virus 40 (SV40) and c-myc human DNA inserts in plasmid pBR322, restriction endonucleases, DNA topoisomerase I, T4 polynucleotide kinase, calf intestine phosphatase, agarose and polyacrylamide/bis, were purchased from Bethesda Research Laboratories (Gaithersburg, Md.), from the American Type Culture Collection (Rockville, Md.) or from New England Biolabs (Beverly, Mass.). [Gamma-^32 P]ATP was purchased from New England Nuclear Research Products (Boston, Mass.).
(§2) DNA topoisomerase II was purified from mouse leukemia L1210 cell nuclei as described, for example, by Pommier et al. (1985), supra, and was stored at -70° C. in 40% (v/v) glycerol, 0.35 M NaCl, 5 mM MgCl2, 1 mM KH2 PO4, 0.2 mM dithiothreitol and 0.1 mM phenylmethanesulfonyl fluoride (pH 6.4). The purified enzyme yielded a single 170 kDa band after silver staining of SDS-polyacrylamide gels, in accordance with the description of Pommier et al., Cancer Res. 46: 3075-81 (1986).
(§3) Preparation of end-labeled DNA fragments: DNA fragments were 5' end-labeled as described, for example, by Fesen and Pommier (1989), supra. Briefly, native DNA was first linearized with a restriction enzyme, […] then the 5'-DNA termini were dephosphorylated with calf alkaline phosphatase and labeled with [gamma-^32 P]ATP using T4 polynucleotide kinase. For double-strand breaks assays using HL-60 nuclear extract, SV40 DNA was digested with BclI endonuclease and labeled at both DNA termini. For sequencing experiments, SV40 and c-myc DNAs were first 5'-end labeled at the XhoII and XbaI restriction sites, respectively. Then, in order to generate uniquely 5'-end-labeled fragments, labeled DNA was subjected to a second enzyme digestion, PflMI for SV40, and EcoRI plus HindIII for c-myc DNA. The resulting DNA fragments were separated by agarose gel electrophoresis and isolated by electroelution. Purification by phenol-chloroform extraction and ethanol precipitation were included between each step and at the end of the labeling procedures, pursuant to Pommier et al., J. Molec. Biol. 222: 909-24 (1991).
Topoisomerase II-induced DNA cleavage reactions: DNA fragments were equilibrated with or without drug in 10 mM Tris-HCl, pH 7.5, 50 mM KCl, 5 mM MgCl2 0.1 mM EDTA, 1 mM ATP and 15 μg/ml bovine serum albumin for 5 minutes before addition of purified topoisomerase II (40 to 70 ng) or HL-60 nuclear extract in 20 μl final reaction volume. Reactions were stopped by adding sodium dodecyl sulfate (SDS) to a final concentration of 1% and proteinase K to 400 μg/ml, followed by incubation for 1 hour at 40° C.
For DNA sequence analysis, samples were precipitated with ethanol and resuspended in 2.5 μl loading buffer (80% formamide, 10 mM NaOH, 1 mM EDTA, 0.1% xylene cyanol and 0.1% bromophenol blue). Samples were heated to 90° C. and immediately loaded into DNA sequencing gels (6% polyacrylamide; 19:1, acrylamide:bis) containing 7M urea in (1×) TBE buffer. Electrophoresis was at 2500 V (60 W) for 4 hours. Gels were dried on 3M paper sheets and autoradiographed with Kodak XAR-2 film. See Pommier et al. (1991), supra.
Induction of top 2 cleavage by azatoxin was tested directly with the use of purified murine leukemia top 2. […] Sites of cleavage were also determined by DNA sequencing in the 5' flank of c-myc first intron.

[3] = test system: top 2 (HL-60 nuclear extract); assay: Induction of DNA double-strand breaks in SV40 DNA in presence of HL-60 nuclear extract; type: biochemical
Description: as §1
as §3, with “Purification by phenol-chloroform extraction and ethanol precipitation were included between each step and at the end of the labeling procedures, pursuant to Pommier et al., J. Molec. Biol. 222: 909-24 (1991).” left out
For agarose gel analysis, 3 μl (10×) loading buffer (0.3% bromophenol blue, 16% Ficoll, 10 mM Na2 HPO4) was added to each sample which was then heated at 65° C. for 1-2 minutes before loading into an agarose gel made in (1×) TBE (89 mM Tris, 89 mM boric acid, 2 mM EDTA, pH8), in accordance with Fesen & Pommier (1989), supra. […] The quantification of drug-induced DNA double-strand breaks in the presence of HL-60 nuclear extract was effected as described in the next paragraph.
Radioactive gels were counted in betascope 603 blot analyzer. […] Drug-induced cleavage was expressed as: [formula] where C. and T. are the counts for cleaved and total DNA, respectively, in presence of nuclear extract without drug.
Drug-induced DNA double-strand breaks were measured first in SV40 DNA in the presence of HL-60 nuclear extracts. […]

top 2 = assay: Inhibition of top 2-mediated relaxation of native SV40 DNA; type: biochemical, mouse
Description: as §2
Two different assays were conducted to illuminate the nature of azatoxin's effects vis-a-vis DNA relaxation. To study the inhibition of top 2 catalytic activity, topoisomerase reactions were performed with 0.4 μg native SV40 DNA in 30 μl reaction buffer for 30 minutes at 37° C. and stopped by adding SDS to a final concentration of 1% and proteinase K to 400 μg/ml, followed by incubation for 1 hour at 42° C., essentially as described by Fesen & Pommier (1989), supra. Agarose gel electrophoresis was performed in 1% gels made in Tris-Acetate-EDTA (TAE) buffer (40 mM Tris-Acetate, pH 7.6, 10 mM Na2 EDTA). Gels were run at 2 V/cm overnight, washed in water and then stained with 1 μM ethidium bromide for 45 minutes. After an additional 45 minutes destaining in 1 mM Mg2 SO4, the DNA was visualized under UV light and photographed with a Polaroid type 57 film.

tubulin = assay: in vitro tubulin polymerization assay; type: biochemical
Description: (§4) Thus, azatoxin effectively prevents tubulin polymerization in vitro at concentrations in the range of 1 to 10 μM.

[4] = test system: panel of sixty human tumor cells lines; assay: Growth inhibition / cytotoxicity against NCI panel of sixty human tumor cell lines; type: cell-based
From the text: FIG. 1 is a graphical representation of results generated by testing the inhibitory activity of an illustrative compound within the present invention against panel of tumor cell lines which is a standard of the National Cancer Institute Developmental Therapeutics Program [GI50: "50% growth inhibition"; TGI: "[…]"; LC50: "50% lethal concentration"].
See Yang et al., Cancer Res. 45:5872-76 (1985), and Liu (1989), supra, at 361-63. […] Pursuant to the convention of Paull et al., J. Nat'l Cancer Inst. […] See also Monks et al., J. Nat'l Cancer Inst. 83: 757-66 (1991), and Boyd, Principles & Practice of Oncology3:1-12 (1989).
as §4

SV40 DNA = assay: DNA unwinding (intercalation) assay with excess topoisomerase I; type: biochemical, simian virus 40
Description: To assess DNA unwinding, see Pommier et al., Nucleic Acids Res. 15: 6713-31(1987), the DNA was relaxed first by treatment for 15 minutes with top 1 (20 units), after which the test agent was added. These steps were carried out at 37° C. DNA-agent-top 1 mixtures were incubated for an additional 30 minutes and then stopped as described above. Samples were then subjected to agarose gel electrophoresis as described above.
This was also the case for the 2 azatoxin isomers, 8 and 10, and for the demethylepipodophyllotoxins, DMDP and DMEP. Similar results were obtained with supercoiled DNA.

COc1cc([C@@H]2c3[nH]c4ccccc4c3C[C@H]3COC(=O)N32)cc(OC)c1O [Azatoxin, 5R, 11aS-3-One-5,4,11,11a-tetrahydro-5-(3,5-dimethoxy-4-hydroxyphenyl) -1H, 6H-oxazolo[3', 4': 1,6]pyrido[3,4-b]indole]
inducing protein-linked DNA breaks in cells [1]: very active in inducing protein-linked DNA breaks in cells
top 2 cleavage potency (in words) [2]: potent top 2 inhibitor
top 2 cleavage sites induced (number/amount) [2]: induced many cleavage sites both in the SV40 and the c-myc DNA fragments
top 2 cleavage sites induced (number/amount) ([2]; listed as azatoxin): induced more cleavage sites than mitoxantrone, m-AMSA, VM-26 or VP-16; also recorded: induces the largest number of top 2 cleavage sites both in SV40 and c-myc DNA
top 2 cleavage pattern ([2]; compared with other top 2 inhibitors): cleavage pattern differing from those induced by other top 2 inhibitors
DNA cleavage potency (in words) ([3]; SV40 DNA, HL-60 nuclear extract, compared to VP-16): comparable to that of VP-16
cleavage above 10 μM, concentration dependence ([3]; above 10 μM): cleavage occurred at many sites and was proportional to the logarithm of azatoxin concentration
suppression of DNA cleavage at high drug concentrations ([3]; up to 1 mM): not suppressed at high drug concentrations (up to 1 mM)
production of linear / nicked DNA (top 2): produce a substantial amount of linear DNA without significant increased of nicked DNA
inhibition of top 2-mediated relaxation (top 2; 30 minutes, 37° C.): inhibits top 2-mediated relaxation of native SV40 DNA
tubulin inhibition (in words) (tubulin): potent tubulin inhibitor
cytotoxicity to tumor cells (in words) ([4]; FIG. 1 means graph): cytotoxicity of aratoxin to cells associated with disseminated cancers (leukemias) as well as several consolidated cancers (non-small cell lung and colon)
growth inhibition of human tumor cell lines (in words) ([4]; sixty cell lines: leukemia, melanoma, lung, colon, kidney, ovary, CNS): significant inhibitory activity
DNA unwinding / intercalation conclusion (SV40 DNA): does not intercalate into DNA
DNA unwinding (SV40 DNA; relaxed SV40 DNA, excess topoisomerase I, concentrations as high as 1 mM): did not induce detectable DNA unwinding even at drug concentrations as high as 1 mM
